Holding throughout (experiment): In vitro percent disease control (radii of spore growth on agar)
Assay type in all cases: cell-based

Data set [1] deals with Botryosphaeria dothidea Macrophoma sp. The following applies: for inhibition of growth at 50 ppm / inhibition of growth at 100 ppm: Botryosphaeria dothidea, read-out: % controlled, Bo.do (Ma.). The method in brief:
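Compounds (100 and 50 ppm, 10% acetone in water) were mixed into potato-sucrose-agar and the fungus was spotted centrally, then incubated several days in a growth room. Percent disease control came from radii of spore growth.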

The next data set has as its system Botry tris cinerea. As to conditions: for inhibition of growth at 50 ppm / inhibition of growth at 100 ppm: read-out: % controlled, Bo ci. The method in brief:
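Compounds at 100 and 50 ppm (acetone 10% of final volume, rest water) mixed into potato-sucrose agar; Botrytis cinerea spotted at dish centre. After several days' incubation, percent disease control calculated from radii of spore growth.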

The test system of a further data set is Fusarium moniliforme. Put shortly:
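Compounds in 10% acetone/water at 100 and 50 ppm were mixed into potato-sucrose-agar, with Fusarium moniliforme spotted centrally. After several days' incubation, percent disease control was derived from radii of spore growth.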

The test system of the next data set is Phytophthora capsisi. As to conditions: for inhibition of growth at 50 ppm / inhibition of growth at 100 ppm: Phytophthora, read-out: % controlled, Phy ca. The method in brief: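 Compounds dissolved in acetone (10% of final volume) then water at 100 ppm and 50 ppm, mixed into potato-sucrose-agar; fungus spotted at plate centre and incubated several days. Percent disease control derived from radii of spore growth.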

A further data set has as its system Rhizoctonia solani. As to conditions: for inhibition of growth at 50 ppm / inhibition of growth at 100 ppm: Rhizoctonia solani, read-out: % controlled, Rhy. so. Put shortly: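 Test compounds at 100 ppm and 50 ppm (acetone 10% of final volume, then water) were mixed into potato-sucrose-agar, and the fungus was spotted at the dish centre. Dishes were incubated several days in a growth room. Percent disease control was derived from the radii of spore growth.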

A further data set has as its system Physalospora baccae. The following applies: for inhibition of growth at 50 ppm / inhibition of growth at 100 ppm: read-out: % controlled, Phy ba. Put shortly: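 Compounds at 100 and 50 ppm (10% acetone) mixed into potato-sucrose-agar, fungus spotted centrally and grown several days in a growth room. Percent disease control derived from radii of spore growth.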

The test system of a further data set is Pyricalaria oryzae. As to conditions: for inhibition of growth at 50 ppm: read-out: % controlled, Py. or., 50 ppm; for inhibition of growth at 100 ppm: read-out: % controlled, Py. or., 100 ppm. The method in brief:
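Compounds at 100 ppm and 50 ppm (10% acetone in water) mixed into potato-sucrose-agar, P. oryzae spotted centrally and incubated several days. Percent disease control derived from radii of spore growth.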

Another data set concerns Alternaria mali. As to conditions: for inhibition of growth at 50 ppm / inhibition of growth at 100 ppm: Alternaria mali, read-out: % controlled, Al. The method in brief:
(§1)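 Compounds in acetone (10% of final volume) diluted with water to 100 and 50 ppm, then mixed into potato-sucrose-agar with each fungus spotted centrally. Incubated several days in a growth room; percent disease control derived from radii of spore growth.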

In another data set the test system is Rhizopus sp. As to conditions: for inhibition of growth at 50 ppm / inhibition of growth at 100 ppm: Rhizopus, read-out: % controlled, Rhi. sp. Put shortly:
as §1

The subject of a further data set is Glomerella cingulata. As to conditions: for inhibition of growth at 50 ppm / inhibition of growth at 100 ppm: Colletotrichum gloeosporioides, read-out: % controlled, Glo. Put shortly:
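Compounds were dissolved in acetone (10% of final volume) plus water at 100 ppm and 50 ppm and mixed into potato-sucrose agar. G. cingulata was spotted centrally and incubated for several days in a growth room. Percent disease control was derived from the radii of spore growth.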

Molecules are shown by their SMILES.

For the compound `CCOc1ccc([Si](Cn2cncn2)(C[Si](C)(C)c2ccc(F)cc2)c2ccc(OCC)cc2)cc1` [2,2-bis(4-ethoxyphenyl)-4-(4-fluorophenyl)-4-methyl-2,4-disila-1-(1H-1,2,4-triazol-1-yl)pentane], the inhibition of growth at 50 ppm in data set [1] (50 ppm) stood at 74%; in the data set with Botry tris cinerea (50 ppm), 69%; with Phytophthora capsisi (50 ppm), 50%; with Rhizoctonia solani (50 ppm) it was 78%; with Physalospora baccae (50 ppm) it was 53%; in the data set on Pyricalaria oryzae, 100%. Moreover, the values for the inhibition of growth at 50 ppm in the data set on Alternaria mali (50 ppm), in the data set with Rhizopus sp. (50 ppm) and with Glomerella cingulata (50 ppm) were 63%, 19% and 71%, respectively. For the same compound, the inhibition of growth at 100 ppm in [1] (100 ppm) amounted to 78%; in the data set on Botry tris cinerea (100 ppm), 66%; in the data set with Phytophthora capsisi (100 ppm), 60%; with Rhizoctonia solani (100 ppm) it was 78%; in the data set on Physalospora baccae (100 ppm), 74%; in the data set with Pyricalaria oryzae, 100%. Besides, the inhibition of growth at 100 ppm with Alternaria mali (100 ppm) amounted to 72%; in the data set on Rhizopus sp. (100 ppm), 43%; in the data set with Glomerella cingulata (100 ppm), 77%. Besides, the entries for the “% controlled, Fu. mo.” value in the data set on Fusarium moniliforme (50 ppm) and in the data set on Fusarium moniliforme (100 ppm) were 58% and 63%, respectively.
As to `COc1ccc([Si](Cn2cncn2)(C[Si](C)(C)c2ccc(Cl)cc2)c2ccc(Cl)cc2)cc1` (stereo not shown) [2,4-bis(4-chlorophenyl)-2-(4-methoxyphenyl)-4-methyl-2,4-disila-1-(1H-1,2,4-triazol-1-yl)pentane], the inhibition of growth at 50 ppm is 75% in [1] (50 ppm); 40% with Botry tris cinerea (50 ppm); 45% in the data set on Phytophthora capsisi (50 ppm); 90% in the data set with Rhizoctonia solani (50 ppm); 76% with Physalospora baccae (50 ppm); 100% in the data set with Pyricalaria oryzae. In addition, the values for the inhibition of growth at 50 ppm in the data set with Alternaria mali (50 ppm), with Rhizopus sp. (50 ppm) and with Glomerella cingulata (50 ppm) were 74%, 46% and 76%, respectively. For the same compound, the inhibition of growth at 100 ppm was determined as 79% in data set [1] (100 ppm); 43% in the data set with Botry tris cinerea (100 ppm); 65% with Phytophthora capsisi (100 ppm); 92% in the data set with Rhizoctonia solani (100 ppm); 79% with Physalospora baccae (100 ppm); 100% in the data set with Pyricalaria oryzae. Further, the inhibition of growth at 100 ppm in the data set on Alternaria mali (100 ppm) was 89%; in the data set with Rhizopus sp. (100 ppm), 50%; in the data set on Glomerella cingulata (100 ppm), 87%. In addition, the “% controlled, Fu. mo.” value is reported as 42% in the data set with Fusarium moniliforme (50 ppm) and 48% in the data set with Fusarium moniliforme (100 ppm).
With `C[Si](C)(Cc1ccc(F)cc1)C[Si](C)(Cn1cncn1)c1ccc(F)cc1` (stereo not shown) [4-(4-fluorobenzyl)-2-(4-fluorophenyl)-2,4-dimethyl-2,4-disila-1-(1H-1,2,4-triazol-1-yl)pentane], the inhibition of growth at 50 ppm in data set [1] (50 ppm) came out at 40%; with Botry tris cinerea (50 ppm), 0%; in the data set on Phytophthora capsisi (50 ppm), 3%; in the data set on Rhizoctonia solani (50 ppm), 36%; with Physalospora baccae (50 ppm), 26%; with Pyricalaria oryzae, 50%. The inhibition of growth at 50 ppm worked out at 38% in the data set with Alternaria mali (50 ppm), 21% in the data set with Rhizopus sp. (50 ppm) and 0% in the data set with Glomerella cingulata (50 ppm). Further, the inhibition of growth at 100 ppm is 49% in data set [1] (100 ppm); 0% with Botry tris cinerea (100 ppm); 3% in the data set with Phytophthora capsisi (100 ppm); 36% in the data set with Rhizoctonia solani (100 ppm); 30% with Physalospora baccae (100 ppm); 57% in the data set on Pyricalaria oryzae. In addition, the results for the inhibition of growth at 100 ppm in the data set on Alternaria mali (100 ppm), in the data set on Rhizopus sp. (100 ppm) and in the data set on Glomerella cingulata (100 ppm) were 43%, 24% and 0%, respectively. Further, the figures for the “% controlled, Fu. mo.” value in the data set with Fusarium moniliforme (50 ppm) and in the data set with Fusarium moniliforme (100 ppm) were 34% and 41%, respectively.
For the compound `C=CC[Si](C[Si](CC)(Cn1cncn1)c1ccc(OCC)cc1)(c1ccc(F)cc1)c1ccc(F)cc1` (stereo not shown) [6-(4-ethoxyphenyl)-4,4-bis(4-fluorophenyl)-6-ethyl-4,6-disila-7-(1H-1,2,4-triazol-1-yl)-1-heptane], the “% controlled, Bo.do (Ma.)” value is 65% in [1] (50 ppm) and 69% in data set [1] (100 ppm). Also, the “% controlled, Bo ci.” value with Botry tris cinerea (50 ppm) and in the data set with Botry tris cinerea (100 ppm) was 60% throughout. Further, the “% controlled, Fu. mo.” value in the data set on Fusarium moniliforme (50 ppm) and in the data set with Fusarium moniliforme (100 ppm) was 90% throughout. For the same compound, the “% controlled, Phy ca.” value is listed as 80% in the data set on Phytophthora capsisi (50 ppm) and 90% with Phytophthora capsisi (100 ppm). The “% controlled, Rhy. so.” value in the data set on Rhizoctonia solani (50 ppm) and in the data set on Rhizoctonia solani (100 ppm) was 100% throughout. The “% controlled, Phy ba.” value in the data set with Physalospora baccae (50 ppm) is listed as 60%; in the data set with Physalospora baccae (100 ppm) it was 75%. For the same compound, the results for the “% controlled, Py. or.” value in the data set with Pyricalaria oryzae (50 ppm) and with Pyricalaria oryzae (100 ppm) were 70% and 75%, respectively. In addition, the “% controlled, Al.” value with Alternaria mali (50 ppm) and in the data set with Alternaria mali (100 ppm) was 100% throughout. In addition, the “% controlled, Rhi. sp.” value in the data set on Rhizopus sp. (50 ppm) is 80%; in the data set on Rhizopus sp. (100 ppm), 90%. The “% controlled, Glo.” value in the data set with Glomerella cingulata (50 ppm) and in the data set on Glomerella cingulata (100 ppm) was 80% throughout.
On to `C[Si](C)(C[Si](C)(Cn1cncn1)c1ccc(F)cc1)c1ccc(F)cc1` (stereo not shown) [2,4-bis(4-fluorophenyl)-2,4-dimethyl,2,4-disila-1-(1H-1,2,4-triazol-1-yl)pentane], for which the inhibition of growth at 50 ppm in data set [1] (50 ppm) was determined as 40%; with Botry tris cinerea (50 ppm) it was 0%; in the data set with Phytophthora capsisi (50 ppm), 3%; in the data set with Rhizoctonia solani (50 ppm) it was 57%; in the data set with Physalospora baccae (50 ppm), 22%; in the data set with Pyricalaria oryzae, 50%. The results for the inhibition of growth at 50 ppm in the data set with Alternaria mali (50 ppm), in the data set on Rhizopus sp. (50 ppm) and with Glomerella cingulata (50 ppm) were 38%, 24% and 72%, respectively. Further, the inhibition of growth at 100 ppm was determined as 43% in data set [1] (100 ppm); 10% in the data set on Botry tris cinerea (100 ppm); 6% in the data set with Phytophthora capsisi (100 ppm); 60% in the data set on Rhizoctonia solani (100 ppm); 22% in the data set with Physalospora baccae (100 ppm); 54% with Pyricalaria oryzae. Further, the inhibition of growth at 100 ppm in the data set on Alternaria mali (100 ppm) is 44%; in the data set with Rhizopus sp. (100 ppm), 26%; with Glomerella cingulata (100 ppm), 73%. The “% controlled, Fu. mo.” value in the data set on Fusarium moniliforme (50 ppm) was found to be 35%; in the data set on Fusarium moniliforme (100 ppm), 38%.

(Values after patent US5235061A, “Fungicidal (1H-1,2,4-triazolyl)disilaalkanes” (priority 1991, dated 1993).)
